Data taken from PMC8891364, “Synthesis, and docking studies of novel heterocycles incorporating the indazolylthiazole moiety as antimicrobial and anticancer agents” (Scientific Reports, 2022).
Converted amounts (≈) assume the structure as drawn. “And” between values parts separate entries of the source, which are not always exact repeats. Identical values can stand only once.

Key:
HepG-2 cells = assay: MTT antitumor assay, hepatoma cells; type: cell-based, human
Method: (§1) The human melanocytes (HFB-4) cells, hepatoma (HepG-2) cells, and colon carcinoma (Caco-2) cells were obtained from American Type Culture Collection (ATCC, USA). The cytotoxicity of the newly synthesized compounds (at various concentrations) was determined using the 3-[4, 5-dimethylthiazol]-2, 5-diphenyltetrazolium bromide method (MTT assay)[59] against HFB-4 cells (normal human melanocytes), HepG-2 cells (hepatoma), and Caco-2 cells (colon carcinoma). Normal and cancer cells (1.0 × 10^4) were cultured in sterile 96-well microplates, and incubated for 24 h in DMEM (Lonza, USA) supplemented with 10% fetal bovine serum (Gibco, USA) for HFB-4 and Caco-2 cells or in an RPMI-1640 medium (Lonza, USA) supplemented with 10% FBS for HepG-2 cells. After 24 h of incubation, different doses of the tested synthesized compounds ([…]) were added in triplicate to all cells and incubated for another 48 h in 5% CO2. After washing the cells 3 times with fresh media, to remove dead cells and debris, a solution of MTT (Sigma -Aldrich, 0.5 mg/mL) was added to each well and further incubated for 2–5 h at 37 °C. Afterward, the MTT solution was decanted and 200 µL of DMSO was added. The optical density was measured at 570 nm using a microplate reader (BMG LabTech, Germany), where the cells’ relative viability (%) was estimated using the following equation: viability of cells (%) = [A1 − A0/AU − A0] × 100, where A1 is the absorbance of the test compound, A0 is the absorbance of the blank, and AU is the absorbance of untreated cells (control).
(§2) The antitumor activity of the synthesized compound was determined by calculating the IC50 value (half maximal inhibitory concentration) using Graph Pad Prism 6.0 software. The value of IC50 indicates the derivative concentration that causes 50% cell death, whereas the value of the selectivity index (SI), indicating the ratio of the IC50 value of normal cells versus the IC50 value of tumor cells, was also included as reported by[60],[61].

Caco-2 cells [1] = assay: MTT antitumor assay, colon carcinoma cells; type: cell-based
Method: as §1, §2

HFB-4 cells = assay: MTT cytotoxicity assay, normal human melanocytes; type: cell-based; conditions: Melanocyte, 48 h
Method: as §1, §2

Bcl-2 gene = assay: qRT-PCR gene expression in HepG-2 and Caco-2 cells; type: cell-based, human
Method: (§3) The effects of the potent antitumor derivatives (4, 6, and 8) on the expression level of some tumor regulating genes were elucidated through quantitative real-time PCR (qRT- PCR) and compared to 5-fluorouracil (5-FU) as a reference antitumor drug. Five genes were assessed, including the tumor oncogene (Bcl-2), tumor suppressor gene (p53), matrix metalloproteinase gene (MMP-9), vascular endothelial growth factor gene (VEGF), and beta-catenin protein gene (β-catenin), in HepG-2 and Caco-2 cells, before and after treatment for 2 days with IC50 concentrations for compounds 4, 6, and 8. Following the extraction of total RNA from the tested cells, using the Gene JET RNA Purification Kit (Thermo Scientific, USA), cDNA synthesis was performed according to the cDNA Synthesis Kit protocol (Thermo Scientific, USA). qRT PCR was performed using the SYBR green kit and specific primers (Forward/Reverse) as follows: 5′-[…]-3'/5'-TCG GTCTCCTAAAAGCAGGC-3′ for the Bcl-2 gene, 5′-TAACAGTTCCTGCATG GG CG GC-3′/5′-[…]-3′ for p53, 5'-CTGCGTATTTCCATT CATC-3'/5'-CCTTGGGTCAGGTTTAGAG-3' for the MMP-9 gene, 5'-GGCTTTACT GCTGTACCTCC-3'/5'-CAAATGCTTTCTCCGCTCT-3' for the VEGF gene, and 5'-CATATGCGGCTGCTG TTCTA-3'/5'-CCGAAAG CCGTTTCTTGTAG-3' for the β-catenin gene. The upregulation and/or downregulation of the expression of the tested genes in Caco-2 and HepG-2 cells was determined by using the equation 2^−ΔΔCT[60].

VEGF gene = assay: qRT-PCR gene expression in HepG-2 and Caco-2 cells; type: cell-based, human; conditions: IC50 concentrations, 2 days, compared to 5-FU and untreated cells
Method: as §3

β-catenin gene = assay: qRT-PCR gene expression in HepG-2 and Caco-2 cells; type: cell-based, human; conditions: IC50 concentrations, 2 days
Method: as §3

MMP-9 gene = assay: qRT-PCR gene expression in HepG-2 and Caco-2 cells; type: cell-based, human; conditions: IC50 concentrations, 2 days, compared to 5-FU and untreated cells
Method: as §3

Streptococcus mutans = assay: Microbial-biofilm inhibition, tissue-culture plate technique (TCP); type: cell-based; conditions: 25 µg/mL, 24 h
Method: (§4) The activity of the newly synthesized compounds against microbial biofilm formation was estimated through the tissue-culture plate technique (TCP) as follows: the three above-mentioned pathogens, Streptococcus mutans, Pseudomonas aeruginosa, and Candida albicans were cultivated overnight in LB broth at 37 °C. Afterward, 200 µL of each diluted organism (10^6 CFU/mL) was inoculated separately (in triplicate) into 96-well tissue culture plates and incubated overnight at 37 °C. The free planktonic cells were removed, after the incubation period, by flipping the plate and washing each well three times with phosphate-buffered-saline (PBS), pH 7.1. To each well, 175 µL of fresh LB broth was added along with 25 µL of the tested compound (25 µg/mL final concentrations). The plates were reincubated at 37 °C for another 24 h, washed with PBS buffer pH 7.1 three times, and dried for 5 min at 50 °C. The formed biofilm was stained with crystal violet solution (0.1% w/v) for 5 min. The excess stain was decanted, and the stained biofilm was solubilized with 200 µL of glacial acetic acid (30% v/v), where the developed blue color was measured at 590 nm. The results are expressed as relative inhibition (%) compared to untreated groups (control). Controls were prepared by culturing the three pathogens on LB medium without any tested compounds.

Pseudomonas aeruginosa = assay: as above; type: cell-based; conditions: 25 µg/mL, 24 h
Method: as §4

[2] = test system: Streptococcus mutans ATCC 25175; assay: Antimicrobial microtiter-plate MIC assay; type: cell-based; conditions: Streptococcus mutans, ATCC25175, 24 h, read-out: MIC Streptococcus mutant
Method: (§5) The antimicrobial activity of the newly synthesized compounds (2–9) was evaluated against three model pathogenic microorganisms as follows: Streptococcus mutans ATCC 25175 (Gram-positive bacterium); Pseudomonas aeruginosa ATCC 27853 (Gram-negative bacterium); and Candida albicans ATCC 10231 (fungi-like unicellular organism). After cultivating the three tested pathogens overnight in LB broth, 100 µL of each tested organism (10^6 CFU/mL) was added separately to 100 µL of the serially diluted test compounds (5–80 µg) in a 96-well tissue culture plate and incubated at 37 °C for 24 h. Eventually, microbial growth was measured at 600 nm, and the results are presented in the form of MIC (Table 4). Two antibacterial reference drugs, ampicillin and ciprofloxacin, and one antifungal drug, clotrimazole, were incorporated into the experiments.

[3] = test system: Pseudomonas aeruginosa ATCC 27853; assay: Antimicrobial microtiter-plate MIC assay; type: cell-based; conditions: Pseudomonas aeruginosa, ATCC27853; 24 h, 37 °C
Method: as §5

[4] = test system: Candida albicans ATCC 10231; assay: Antimicrobial microtiter-plate MIC assay; type: cell-based; conditions: Candida albicans, ATCC10231; 24 h, 37 °C
Method: as §5

Caco-2 cells [5] = assay: Cell cycle arrest analysis by flow cytometry; type: cell-based, human; conditions: 48 h, IC50 concentrations, vs untreated control
Method: The cell cycle arrest of treated Caco-2 cells was evaluated through flow cytometry (Partec, Germany) in comparison with untreated cells and treated cells with 5-FU as a positive control[60],[62]. […] After washing the cells three times, the cells were fixed by adding 1 mL of 70% cold ethanol dropwise with a gentle vortex. Caco-2 cells were washed three times again with cold PBS and incubated in 1 mL of PBS containing 5 μg/mL RNase A (Sigma-Aldrich) for 1 h at 37 °C. Then 10 μL of PI (Sigma-Aldrich) was added to cells at a final concentration of 1 mg/mL in deionized water and left at 4 °C until analysis in the dark. The cell cycle of Caco-2 cells before and after treatment was analyzed by FACS using Cell Quist and Mod Fit software by reading at 488 nm.

[6] = ratio of IC50 of normal cells (HFB-4) versus IC50 of tumor cells

Structure (SMILES): N#Cc1c(N)oc2nc(N3NC4=C(CCCC4)C3c3ccccc3)sc12 (centres unmarked) [Compound 4, 5-amino-2-(3-phenyl-1,3,4,5,6,7-hexahydro-2H-indazol-2-yl)furo[2,3-d] thiazole-6-carbonitrile]
- IC50 (HepG-2 cells; Homo sapiens, HepG2, 48 h, MTT, 48 h): 7.88 ± 0.1 µg/mL (≈ 21.7 µM)
- SI HepG-2 (HepG-2 cells; [6]): 18.1 and 18.06 ± 0.19
- IC50 (Caco-2 cells [1]; Homo sapiens, Caco-2, 48 h, MTT, 48 h): 6.18 ± 1.14 µg/mL (≈ 17 µM)
- SI Caco-2 (Caco-2 cells [1]; [6]): 23 and 23.03 ± 0.24
- IC50 (HFB-4 cells): 142 ± 1.48 µg/mL (≈ 392 µM)
- gene expression of Bcl-2 (Bcl-2 gene; HepG-2 and Caco-2 cells, IC50 concentrations, 2 days, compared to 5-FU and untreated cells): significantly downregulated
- downregulation of Bcl-2 expression, fold (Bcl-2 gene; compared to control cells): more than threefold
- gene expression of VEGF (VEGF gene): significantly downregulated
- expression of the β-catenin gene (β-catenin gene): significantly suppressed
- gene expression of MMP-9 (MMP-9 gene): significantly downregulated
- antibiofilm formation activity Streptococcus mutans (in words) (Streptococcus mutans): had antibiofilm formation activities
- biofilm inhibition activity Pseudomonas aeruginosa (in words) (Pseudomonas aeruginosa): high biofilm inhibition activity
- MIC [2]: 34.41 ± 0.237 µg/mL (≈ 94.7 µM)
- MIC [3]: 60.8 ± 2.22 µg/mL (≈ 167 µM)
- MIC [4]: 48.9 ± 1.05 µg/mL (≈ 135 µM)
- apoptotic phase (sub-G1) population (Caco-2 cells [5]): becomes detectable after treatment
- synthesis (S) phase population (Caco-2 cells [5]): decreased
